Data published in PMC9841519, “Corrole Nanoparticles for Chemotherapy of Castration-Resistant Prostate Cancer and as Sonodynamic Agents for Pancreatic Cancer Treatment” (Journal of Medicinal Chemistry, 2022).

What was measured:
SK-MEL-28 = experiment: MTT assay, antitumor activity (Figure 1 table); details: for IC50: read-out: IC50 (μM) SK-MEL-28
Method: (§1) Cell death was evaluated using a colorimetric [3-(4,5-dimethyl-thiazol-2-yl)-2,5-diphenyl-tetrazolium bromide] (MTT) assay. […] Cells intended for US exposure were plated separately. […] After this incubation period, purple formazan salt crystals were formed by a NADP/NADPH-dependent process, in metabolically active cells. […] The absorption of MTT was determined in a Tecan Sunrise Elisa-Reader (Switzerland) at 570/650 nm after automatic subtraction of background readings.

MDA-MB-231 = experiment: MTT assay, antitumor activity (Figure 1 table); details: for IC50: read-out: IC50 (μM) MDA-MB-231
Method: as §1

DU-145 = experiment: MTT assay, antitumor activity (Figure 1 table); details: for IC50: read-out: IC50 (μM) DU-145
Method: as §1

[1] = system: several human cancer cell lines; experiment: Screening of corrole derivatives and their NPs on several cancer cell lines; assay type: cell-based; details: not consistent upon repeated experiments for 2-Au
Method: Multiple corrole derivatives and their NPs were tested on several cancer cell lines. These include several metal chelated derivatives of 5,10,15-tris(pentafluorophenyl)corrole (2-H3) (Figure 1A); β-substituted (iodinated and brominated) corroles and several of its metal chelates (only 4-Au data are shown); different meso substituted corroles and their metal chelates (e.g., 5,15-di(pentafluorophenyl)-10-(imidazolyl)-corrole gallium(III), not presented); and the new synthetically available compound 5,10,15-tris(trifluoromethyl)corrole with different chelated metals (only the gallium(III) chelate 3-Ga is presented in Figure 1A). […] The best candidates from the high molecular weight list of corrole derivatives were the gold complexes 2-Au and 4-Au. […] Though there was an apparent effect on the cell cycle progression of the treated cells, there was no apparent cell death outcome accompanying the cell cycle arrest. Furthermore, the cell population within the culture wells appeared to be dividing freely and completely covering the wells’ surface (data not shown).

OVCAR-3 = experiment: MTT assay, antitumor activity (Figure 1 table)
Method: as §1

Salmonella strain TA98 = experiment: Ames mutagenicity test
Description: (§2) Briefly, the Ames test uses 5 bacterial strains (Salmonella and E. coli) that are exposed to a given compound with and without an enzymatic bioactivation system derived from rodent liver (S9). Each bacterial strain has a different loss of function mutation in a gene essential for the biosynthesis of a required amino acid, histidine in Salmonella or tryptophan in E. coli, such that they cannot grow and form colonies on agar plates lacking these amino acids.

Salmonella strain TA100 = experiment: Ames mutagenicity test; details: S9: Yes
Description: as §2

Row | SMILES | IC50 (SK-MEL-28) | IC50 (MDA-MB-231) | IC50 (DU-145) | also measured
1 | Fc1c(F)c(F)c(C2=C3C=CC(=N3)C(c3c(F)c(F)c(F)c(F)c3F)=c3ccc4[n]3[Au]3[n]5c2ccc5-c2ccc([n]23)C=4c2c(F)c(F)c(F)c(F)c2F)c(F)c1F [2-Au] | 0.006 to 5 µM | 0.01 to 1 µM | 0.005 to 4 µM | –
2 | Fc1c(F)c(F)c(C2=C3C=CC(=N3)C(c3c(F)c(F)c(F)c(F)c3F)=c3ccc4[n]3[Au]3[n]5c2c(I)c(I)c5-c2c(I)c(I)c([n]23)C=4c2c(F)c(F)c(F)c(F)c2F)c(F)c1F [4-Au] | 1 to 10 µM | 1 to 10 µM | 0.07 to 1 µM | IC50 values in several human cancer cell lines (in words) [1]: submicromolar to single micromolar; IC50 (OVCAR-3; read-out: IC50 (μM) OVCAR-3): 1 µM
3 | Nc1cccc2cc3ccccc3cc12 [aminoanthracene] | – | – | – | AMES Result (Positive/Negative) (Salmonella strain TA98; S9: Yes): Positive; AMES Result (Positive/Negative) (Salmonella strain TA100): Positive
4 | O=[N+]([O-])c1ccc2c(c1)Cc1ccccc1-2 [2-nitrofluorine] | – | – | – | AMES Result (Positive/Negative) (Salmonella strain TA98; S9: No): Positive
5 | Fc1c(F)c(F)c(C2=C3C=CC(=N3)C(c3c(F)c(F)c(F)c(F)c3F)=c3ccc4[n]3[Mn]3[n]5c2ccc5-c2ccc([n]23)C=4c2c(F)c(F)c(F)c(F)c2F)c(F)c1F [2-Mn] | 5 µM | 4 µM | 10 µM | –
6 | Fc1c(F)c(F)c(-c2c3nc(c(-c4c(F)c(F)c(F)c(F)c4F)c4ccc([nH]4)c4ccc([nH]4)c(-c4c(F)c(F)c(F)c(F)c4F)c4ccc2[nH]4)C=C3)c(F)c1F [2-H3, 5,10,15-tris(pentafluorophenyl)corrole] | – | – | – | IC50 (μM) SK-MEL-28 (SK-MEL-28): ambiguous; IC50 (μM) MDA-MB-231 (MDA-MB-231): ambiguous; IC50 (μM) OVCAR-3 (OVCAR-3): ambiguous; IC50 (μM) DU-145 (DU-145): ambiguous
